We go through eleven compounds from patent US20240199587A1, “HETEROCYCLIC COMPOUNDS” (Hoffmann-La Roche Inc., priority 2021, published 2024).

This assay has as its target T1, MAGL (Homo sapiens, UniProt Q99685).
T1 sequence (Q99685 1-303): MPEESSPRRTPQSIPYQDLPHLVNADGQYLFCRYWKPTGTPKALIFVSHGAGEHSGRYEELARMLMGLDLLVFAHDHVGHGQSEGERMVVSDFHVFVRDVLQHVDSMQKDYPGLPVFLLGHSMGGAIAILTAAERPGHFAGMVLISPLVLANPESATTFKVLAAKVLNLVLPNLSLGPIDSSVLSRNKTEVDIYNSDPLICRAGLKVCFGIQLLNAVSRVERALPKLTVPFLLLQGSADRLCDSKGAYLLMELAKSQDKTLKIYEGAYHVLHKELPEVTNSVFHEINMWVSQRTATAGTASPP
Put plainly: 2-AG assay (MAGL inhibitory activity, hydrolysis of 2-arachidonoylglycerol to arachidonic acid followed by mass spectrometry). As to conditions: 8 μM 2-arachidonoylglycerol, 15 min pre-incubation, 30 min incubation at RT, RapidFire MS readout. The assay is classed as biochemical. In short, it runs like this: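 Human MAGL ([…] final) pre-incubated 15 min at RT with compound in 50 mM TRIS, 1 mM EDTA, 0.01% Tween-20, 2.5% DMSO; 8 μM 2-AG then added for 30 min at RT. Acetonitrile quench with d8-arachidonic acid; arachidonic acid measured by RapidFire SPE–MS/MS, activity from arachidonic acid/d8 ratio.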
Take `O=C(N1CC2(CC(Oc3cc(C(F)(F)F)ncn3)C2)C1)N1CC2(CC(n3cnc(C4CC4)n3)C2)C1` [Example 57, [6-(3-cyclopropyl-1,2,4-triazol-1-yl)-2-azaspiro[3.3]heptan-2-yl]-[6-[6-(trifluoromethyl)pyrimidin-4-yl]oxy-2-azaspiro[3.3]heptan-2-yl]methanone]: half-maximal inhibition (IC50) was put at 2.5 nM.

For `O=C(N1CC2(CC(Oc3nccc(C(F)(F)F)n3)C2)C1)N1CC2(CC(n3cnc(C4CC4)n3)C2)C1` [Example 58, [6-(3-cyclopropyl-1,2,4-triazol-1-yl)-2-azaspiro[3.3]heptan-2-yl]-[6-[4-(trifluoromethyl)pyrimidin-2-yl]oxy-2-azaspiro[3.3]heptan-2-yl]methanone], the IC50 (in general, the midpoint of a concentration-inhibition curve) is 2.6 nM.

In turn, `O=C(N1CC2(CC(Oc3ccc(F)cc3F)C2)C1)N1CC2(CC(n3cnc(C4CC4)n3)C2)C1` [Example 59, (6-(3-cyclopropyl-1H-1,2,4-triazol-1-yl)-2-azaspiro[3.3]heptan-2-yl)(6-(2,4-difluorophenoxy)-2-azaspiro[3.3]heptan-2-yl)methanone] gave an IC50 of 2.6 nM.

As for `COc1ccc(OC2CC3(C2)CN(C(=O)N2CC4(CC(n5cnc(C6CC6)n5)C4)C2)C3)cn1` [Example 60, (6-(3-cyclopropyl-1H-1,2,4-triazol-1-yl)-2-azaspiro[3.3]heptan-2-yl)(6-((6-methoxypyridin-3-yl)oxy)-2-azaspiro[3.3]heptan-2-yl)methanone], half-maximal inhibition (IC50) was put at 5.3 nM.

In turn, `O=C(N1CC2(CC(Oc3cnc(C(F)(F)F)nc3)C2)C1)N1CC2(CC(n3cnc(C4CC4)n3)C2)C1` [Example 61, (6-(3-cyclopropyl-1H-1,2,4-triazol-1-yl)-2-azaspiro[3.3]heptan-2-yl)(6-((2-(trifluoromethyl)pyrimidin-5-yl)oxy)-2-azaspiro[3.3]heptan-2-yl)methanone] yielded an IC50 of 5.4 nM.

`O=C(N1CC2(CC(Oc3ccc(C(F)(F)F)nn3)C2)C1)N1CC2(CC(n3cnc(C4CC4)n3)C2)C1` [Example 62, [6-(3-cyclopropyl-1,2,4-triazol-1-yl)-2-azaspiro[3.3]heptan-2-yl]-[6-[6-(trifluoromethyl)pyridazin-3-yl]oxy-2-azaspiro[3.3]heptan-2-yl]methanone]: the half-inhibitory concentration (IC50) worked out at 7.2 nM.

`O=C(N1CC2(CC(Oc3cncc(F)c3)C2)C1)N1CC2(CC(n3cnc(C4CC4)n3)C2)C1` [Example 63, (6-(3-cyclopropyl-1H-1,2,4-triazol-1-yl)-2-azaspiro[3.3]heptan-2-yl)(6-((5-fluoropyridin-3-yl)oxy)-2-azaspiro[3.3]heptan-2-yl)methanone] showed an IC50 of 19.8 nM.

`CC(C)(C)c1nc(-c2ccc(C(=O)N3CC4(CC(n5cnc(C6CC6)c5)C4)C3)cc2)no1` [Example 64, (4-(5-(tert-butyl)-1,2,4-oxadiazol-3-yl)phenyl)(6-(4-cyclopropyl-1H-imidazol-1-yl)-2-azaspiro[3.3]heptan-2-yl)methanone] gave a half-inhibitory concentration (IC50) of 21.7 nM.

Compound `O=C(N1CC2(CC(OCC(F)(F)F)C2)C1)N1CC2(CC(n3cnc(C4CC4)n3)C2)C1` [Example 65, [6-(3-cyclopropyl-1,2,4-triazol-1-yl)-2-azaspiro[3.3]heptan-2-yl]-[6-(2,2,2-trifluoroethoxy)-2-azaspiro[3.3]heptan-2-yl]methanone] gave a half-inhibitory concentration (IC50) of 83.2 nM.

Take `Cn1ccc(OC2CC3(C2)CN(C(=O)N2CC4(CC(n5cnc(C6CC6)n5)C4)C2)C3)cc1=O` [Example 66, 4-[[2-[6-(3-cyclopropyl-1,2,4-triazol-1-yl)-2-azaspiro[3.3]heptane-2-carbonyl]-2-azaspiro[3.3]heptan-6-yl]oxy]-1-methyl-pyridin-2-one]: inhibition was half-maximal at 159 nM (IC50).

Turning to `O=C(N1CC(c2ccc(C3(C(F)(F)F)CC3)cc2)C1)N1CC2(CC(n3ncnc3C3CC3)C2)C1` [Example 67, [6-(5-cyclopropyl-1,2,4-triazol-1-yl)-2-azaspiro13.31heptan-2-yl]−[3-[4-[1-(trifluoromethyl)cyclopropyl]phenyl]azetidin-1-yl]1methanone], the half-maximal inhibitory concentration (IC50) is 3170 nM.
